Measured values taken from patent publication US12440496B2, “Natriuretic peptide receptor a agonists useful for the treatment of cardiometabolic diseases, kidney disease and diabetes” (Merck Sharp & Dohme LLC, priority 2019, dated 2025).

Each compound was assayed against T1, hNPRA (Homo sapiens, UniProt P16066) (assay: NPRA Functional Cell Assay (cGMP HTRF, NPRA HEK JumpIn stable cells)). Details: cGMP production, 1 hour at 37° C., 10-point dose response.
T1 construct: expressed in transfected cells
T1 sequence (P16066 33-1061): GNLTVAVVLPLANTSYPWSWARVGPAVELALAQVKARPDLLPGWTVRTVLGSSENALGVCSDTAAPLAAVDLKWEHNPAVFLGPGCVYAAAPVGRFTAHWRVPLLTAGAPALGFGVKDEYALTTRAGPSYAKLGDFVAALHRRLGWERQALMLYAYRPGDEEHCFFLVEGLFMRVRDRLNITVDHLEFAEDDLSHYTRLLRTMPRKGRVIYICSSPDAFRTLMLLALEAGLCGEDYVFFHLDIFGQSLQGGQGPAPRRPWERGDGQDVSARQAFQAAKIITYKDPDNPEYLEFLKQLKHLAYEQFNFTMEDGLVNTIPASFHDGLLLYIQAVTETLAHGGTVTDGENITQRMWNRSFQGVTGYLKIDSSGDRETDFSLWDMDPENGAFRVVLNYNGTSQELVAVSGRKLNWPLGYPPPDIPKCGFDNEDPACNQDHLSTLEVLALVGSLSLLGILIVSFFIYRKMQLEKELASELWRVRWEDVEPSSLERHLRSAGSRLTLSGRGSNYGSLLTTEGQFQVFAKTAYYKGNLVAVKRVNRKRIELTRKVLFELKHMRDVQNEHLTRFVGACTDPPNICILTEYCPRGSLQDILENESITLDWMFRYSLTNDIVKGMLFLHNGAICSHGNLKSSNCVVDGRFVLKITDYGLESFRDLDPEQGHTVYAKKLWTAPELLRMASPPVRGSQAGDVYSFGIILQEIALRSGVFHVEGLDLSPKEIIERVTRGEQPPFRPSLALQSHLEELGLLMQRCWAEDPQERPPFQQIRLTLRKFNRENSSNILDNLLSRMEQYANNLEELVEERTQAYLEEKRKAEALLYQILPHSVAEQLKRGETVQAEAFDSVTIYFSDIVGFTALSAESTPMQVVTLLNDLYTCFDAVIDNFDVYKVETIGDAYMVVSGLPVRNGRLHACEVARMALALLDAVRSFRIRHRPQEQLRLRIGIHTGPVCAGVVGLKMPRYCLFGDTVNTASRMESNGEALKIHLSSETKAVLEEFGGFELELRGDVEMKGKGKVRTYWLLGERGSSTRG
Type: cell-based
How it was run: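 cGMP HTRF read-out after 1 hour compound treatment at 37° C. of human NPRA-expressing HEK JumpIn cells, 1500 cells/well, in buffer with phosphodiesterase inhibitors IBMX and RO20 (100 uM each). Signal converted to [cGMP] by calibration curve; EC50s fitted by 4-parameter logistic; 50 nM h-ANP as positive response.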
An EC50 of 158 nM was found for `CN1CC(NC(=O)c2cccc([C@@H](CCN3CCC(CCO)CC3)NC(=O)c3nc4cc5c(nc4s3)CC[C@H](C(C)(C)C)C5)c2)C1` (racemic) [Example 102, rac-(7S)-7-tert-butyl-N-[rac-(1R)-3-[4-(2-hydroxyethyl)-1-piperidyl]-1-[3-[(1-methylazetidin-1-ium-3-yl)carbamoyl]phenyl]propyl]-5,6,7,8-tetrahydrothiazolo[5,4-b] quinoline-2-carboxamide; 2,2,2-trifluoroacetate] in this work. An EC50 of 1770 nM was found for `CC(C)(C)[C@H]1CCc2nc3sc(C(=O)N[C@H](CCNC4COC4)c4cccc(NS(C)(=O)=O)c4)cc3cc2C1` (racemic) [Example 21, ammonium; methylsulfonyl-[3-[rac-(1R)-3-(oxetan-3-ylamino)-1-[[rac-(6S)-6-tert-butyl-5,6,7,8-tetrahydrothieno[2,3-b]quinoline-2-carbonyl]amino]propyl]phenyl]azanide] in this work. An EC50 of 530 nM was found for `CC(C)(C)[C@H]1CCc2nc3sc(C(=O)N[C@H](CCN(CCO)CCO)c4ccc(-c5ccc(=O)[nH]c5)cc4)cc3cc2C1` (racemic) [Example 34, rac-(6S)-6-tert-butyl-N-[rac-(1R)-3-[bis(2-hydroxyethyl)amino]-1-[4-(6-oxo-1H-pyridin-3-yl)phenyl]propyl]-5,6,7,8-tetrahydrothieno[2,3-b]quinoline-2-carboxamide] in this work. An EC50 of 690 nM was found for `CN(C)CC[C@@H](NC(=O)c1nc2cc3c(nc2s1)CC[C@H](C(C)(C)C)C3)c1cccc(C(=O)NCCO)c1` (racemic) [Example 95, rac-(7S)-7-tert-butyl-N-[rac-(1R)-3-(dimethylamino)-1-[3-(2-hydroxyethylcarbamoyl)phenyl]propyl]-5,6,7,8-tetrahydrothiazolo[5,4-b] quinoline-2-carboxamide] in this work. An EC50 of 696 nM was found for `CN(CC[C@@H](NC(=O)c1cc2cc3c(nc2s1)CC[C@H](C(C)(C)C)C3)c1ccc(-c2ccc(=O)[nH]c2)cc1)C1CCCC1` (racemic) [Example 50, cyclopentyl-methyl-[rac-(3R)-3-[4-(6-oxo-1H-pyridin-3-yl)phenyl]-3-[rac-(6S)-6-tert-butyl-5,6,7,8-tetrahydrothieno[2,3-b]quinoline-2-carbonyl]amino]propyl] ammonium;formate] in this work. An EC50 of 925 nM was found for `CC(C)(C)[C@H]1CCc2nc3sc(C(=O)N[C@H](CCN4CCC(O)CC4)c4ccc(-c5cnc(O)c(C#N)c5)cc4)nc3cc2C1` (racemic) [Example 172, rac-(7S)-7-tert-butyl-N-[rac-(1R)-1-[4-(5-cyano-6-hydroxy-3-pyridyl)phenyl]-3-(4-hydroxypiperidin-1-ium-1-yl)propyl]-5,6,7,8-tetrahydrothiazolo[5,4-b]quinoline-2-carboxamide; 2,2,2-trifluoroacetate] in this work. An EC50 of 1240 nM was found for `CN(CC[C@@H](NC(=O)c1nc2cc3c(nc2s1)CC[C@H](C(C)(C)C)C3)c1ccc(NS(=O)(=O)N(C)C)nc1)Cc1ccn[nH]1` (racemic) [Example 214, methyl-(1H-pyrazol-5-ylmethyl)-[rac-(3R)-3-[6-(dimethylsulfamoylamino)-3-pyridyl]-3-[rac-(7S)-7-tert-butyl-5,6,7,8-tetrahydrothiazolo[5,4-b]quinoline-2-carbonyl]amino]propyl]ammonium; 2,2,2-trifluoroacetate] in this work. An EC50 of 681 nM was found for `CC(C)(C)[C@H]1CCc2nc3sc(C(=O)N[C@H](CCN4CCC(O)CC4)c4ccc(-n5ccnc5)cc4)nc3cc2C1` (racemic) [Example 83, rac-(7S)-7-tert-butyl-N-[rac-(1R)-3-(4-hydroxy-piperidin-1-ium-1-yl)-1-(4-imidazol-1-ylphenyl)propyl]-5,6,7,8-tetrahydro-thiazolo[5,4-b] quinoline-2-carboxamide; 2,2,2-trifluoroacetate] in this work. An EC50 of 959 nM was found for `Cc1n[nH]c(C)c1-c1ccc([C@@H](CCN2CCC(O)CC2)NC(=O)c2nc3cc4c(nc3s2)CC[C@H](C(C)(C)C)C4)cc1` (racemic) [Example 173, rac-(7S)-7-tert-butyl-N-[rac-(1R)-1-[4-(3,5-dimethyl-1H-pyrazol-4-yl)phenyl]-3-(4-hydroxy-1-piperidyl)propyl]-5,6,7,8-tetrahydrothiazolo[5,4-b]quinoline-2-carboxamide] in this work. An EC50 of 1440 nM was found for `CC(C)(C)[C@H]1CCc2nc3sc(C(=O)N[C@H](CCN4CCC(O)CC4)c4ccc(-c5ccc(O)cc5)cc4)nc3cc2C1` (racemic) [Example 129, rac-(7S)-7-tert-butyl-N-[rac-(1R)-1-[4-(4-hydroxyphenyl)phenyl]-3-(4-hydroxypiperidin-1-ium-1-yl)propyl]-5,6,7,8-tetrahydrothiazolo[5,4-b] quinoline-2-carboxamide; 2,2,2-trifluoroacetate] in this work. An EC50 of 553 nM was found for `CC1(O)CN(C(=O)c2cccc([C@@H](CCN3CCC(O)CC3)NC(=O)c3nc4cc5c(nc4s3)CC[C@H](C(C)(C)C)C5)c2)C1` (racemic) [Example 145, rac-(7S)-7-tert-butyl-N-[rac-(1R)-1-[3-(3-hydroxy-3-methyl-azetidine-1-carbonyl)phenyl]-3-(4-hydroxy-1-piperidyl)propyl]-5,6,7,8-tetrahydrothiazolo[5,4-b]quinoline-2-carboxamide] in this work. An EC50 of 2000 nM was found for `CC1(NC(=O)c2cccc([C@@H](CCN3CCC(C(=O)O)CC3)NC(=O)c3nc4cc5c(nc4s3)CC[C@H](C(C)(C)C)C5)c2)CNC1` (racemic) [Example 125, 1-[rac-(3R)-3-[3-[(3-methylazetidin-1-ium-3-yl)carbamoyl]phenyl]-3-[[rac-(7S)-7-tert-butyl-5,6,7,8-tetrahydrothiazolo [5,4-b]quinoline-2-carbonyl]amino]propyl] piperidine-4-carboxylic acid; 2,2,2-trifluoroacetate] in this work. An EC50 of 71 nM was found for `CC(C)[C@]1(F)CCc2nc3sc(C(=O)N[C@H](CCN4CCC(O)CC4)c4ccc(N5CCOCS5(=O)=O)nc4)nc3cc2C1` [Example 217, (S)-N-((R)-1-(6-(3,3-dioxido-1,3,4-oxathiazinan-4-yl)pyridin-3-yl)-3-(4-hydroxypiperidin-1-yl)propyl)-7-fluoro-7-isopropyl-5,6,7,8-tetrahydrothiazolo[5,4-b]quinoline-2-carboxamide] in this work. An EC50 greater than 2000 nM was found for `CC(C)(C)[C@H]1CCc2nc3sc(C(=O)N[C@H](CCN)c4ccccc4)cc3cc2C1` [Example 229, (S)-N-((R)-3-amino-1-phenylpropyl)-6-(tert-butyl)-5,6,7,8-tetrahydrothieno[2,3-b]quinoline-2-carboxamide] in this work. An EC50 of 2930 nM was found for `CC(C)(C)[C@H]1CCc2nc3sc(C(=O)N[C@H](CCN4CCC(CO)CC4)c4ccccc4)cc3cc2C1` [Example 255, (6S)-6-tert-butyl-N-{(1R)-3-[4-(hydroxymethyl)piperidin-1-yl]-1-phenylpropyl}-5,6,7,8-tetrahydrothieno[2,3-b]quinoline-2-carboxamide] in this work. An EC50 of 1020 nM was found for `CC(C)(C)[C@H]1CCc2nc3sc(C(=O)N[C@H](CCN4CCC(O)CC4)c4ccc(N5CCOC5=O)cc4)nc3cc2C1` [Example 230, (S)-7-(tert-butyl)-N-((R)-3-(4-hydroxypiperidin-1-yl)-1-(4-(2-oxooxazolidin-3-yl)phenyl)propyl)-5,6,7,8-tetrahydrothiazolo[5,4-b]quinoline-2-carboxamide] in this work.
